Measurements published in US20240238299A1, “USE OF PYRROLOPYRIMIDINE COMPOUND” (GUANGZHOU JOYO PHARMATECH CO., LTD, priority 2021, published 2024).

Tested on: MOG35-55-induced experimental autoimmune encephalomyelitis (EAE) mouse model
Experiment: MOG35-55-induced EAE mouse model, clinical scoring and incidence
Format: in vivo, C57BL/6 mice

Structure (SMILES): CN(c1ncnc2[nH]ccc12)[C@@H]1CCc2cc(C#N)nn2C1 [Compound I]
- EAE clinical scoring, Mean (G6, 10 mg/kg BID oral, day 27): 0.30
- incidence of EAE (G6, 10 mg/kg BID oral, day 27): 30%
- EAE clinical scoring, Mean (G7, 20 mg/kg BID oral, day 0): 0.00
- incidence of EAE (G7, 20 mg/kg BID oral, day 0): 0%
- EAE clinical scoring, Mean (G7, 20 mg/kg BID oral, day 2): 0.00
- incidence of EAE (G7, 20 mg/kg BID oral, day 2): 0%
- EAE clinical scoring, Mean (G7, 20 mg/kg BID oral, day 4): 0.00
- incidence of EAE (G7, 20 mg/kg BID oral, day 4): 0%
- EAE clinical scoring, Mean (G7, 20 mg/kg BID oral, day 7): 0.00
- incidence of EAE (G7, 20 mg/kg BID oral, day 7): 0%
- EAE clinical scoring, Mean (G7, 20 mg/kg BID oral, day 9): 0.00
- incidence of EAE (G7, 20 mg/kg BID oral, day 9): 0%
- EAE clinical scoring, Mean (G7, 20 mg/kg BID oral, day 11): 0.00
- incidence of EAE (G7, 20 mg/kg BID oral, day 11): 0%
- EAE clinical scoring, Mean (G7, 20 mg/kg BID oral, day 12): 0.00
- incidence of EAE (G7, 20 mg/kg BID oral, day 12): 0%
- EAE clinical scoring, Mean (G7, 20 mg/kg BID oral, day 13): 0.30
- incidence of EAE (G7, 20 mg/kg BID oral, day 13): 30%
- EAE clinical scoring, Mean (G7, 20 mg/kg BID oral, day 14): 0.60
- incidence of EAE (G7, 20 mg/kg BID oral, day 14): 50%
- EAE clinical scoring, Mean (G7, 20 mg/kg BID oral, day 15): 0.80
- incidence of EAE (G7, 20 mg/kg BID oral, day 15): 60%
- EAE clinical scoring, Mean (G7, 20 mg/kg BID oral, day 16): 0.90
- incidence of EAE (G7, 20 mg/kg BID oral, day 16): 60%
- EAE clinical scoring, Mean (G7, 20 mg/kg BID oral, day 17): 1.00
- incidence of EAE (G7, 20 mg/kg BID oral, day 17): 70%
- EAE clinical scoring, Mean (G7, 20 mg/kg BID oral, day 18): 1.10
- incidence of EAE (G7, 20 mg/kg BID oral, day 18): 80%
- EAE clinical scoring, Mean (G7, 20 mg/kg BID oral, day 19): 1.10
- incidence of EAE (G7, 20 mg/kg BID oral, day 19): 80%
- EAE clinical scoring, Mean (G7, 20 mg/kg BID oral, day 20): 0.90
- incidence of EAE (G7, 20 mg/kg BID oral, day 20): 70%
- EAE clinical scoring, Mean (G7, 20 mg/kg BID oral, day 21): 0.80
- incidence of EAE (G7, 20 mg/kg BID oral, day 21): 60%
- EAE clinical scoring, Mean (G7, 20 mg/kg BID oral, day 22): 0.50
- incidence of EAE (G7, 20 mg/kg BID oral, day 22): 30%
- EAE clinical scoring, Mean (G7, 20 mg/kg BID oral, day 23): 0.50
- incidence of EAE (G7, 20 mg/kg BID oral, day 23): 30%
- EAE clinical scoring, Mean (G7, 20 mg/kg BID oral, day 24): 0.30
- incidence of EAE (G7, 20 mg/kg BID oral, day 24): 10%
- EAE clinical scoring, Mean (G7, 20 mg/kg BID oral, day 25): 0.30
- incidence of EAE (G7, 20 mg/kg BID oral, day 25): 10%
- EAE clinical scoring, Mean (G7, 20 mg/kg BID oral, day 26): 0.30
- incidence of EAE (G7, 20 mg/kg BID oral, day 26): 10%
- EAE clinical scoring, Mean (G7, 20 mg/kg BID oral, day 27): 0.30
- incidence of EAE (G7, 20 mg/kg BID oral, day 27): 10%
- EAE clinical scoring, Mean (G8, 20 mg/kg QD oral, day 0): 0.00
- incidence of EAE (G8, 20 mg/kg QD oral, day 0): 0%
- EAE clinical scoring, Mean (G8, 20 mg/kg QD oral, day 2): 0.00
- incidence of EAE (G8, 20 mg/kg QD oral, day 2): 0%
- EAE clinical scoring, Mean (G8, 20 mg/kg QD oral, day 4): 0.00
- incidence of EAE (G8, 20 mg/kg QD oral, day 4): 0%
- EAE clinical scoring, Mean (G8, 20 mg/kg QD oral, day 7): 0.00
- incidence of EAE (G8, 20 mg/kg QD oral, day 7): 0%
- EAE clinical scoring, Mean (G8, 20 mg/kg QD oral, day 9): 0.00
- incidence of EAE (G8, 20 mg/kg QD oral, day 9): 0%
- EAE clinical scoring, Mean (G8, 20 mg/kg QD oral, day 11): 0.00
- incidence of EAE (G8, 20 mg/kg QD oral, day 11): 0%
- EAE clinical scoring, Mean (G8, 20 mg/kg QD oral, day 12): 0.00
- incidence of EAE (G8, 20 mg/kg QD oral, day 12): 0%
- EAE clinical scoring, Mean (G8, 20 mg/kg QD oral, day 13): 0.20
- incidence of EAE (G8, 20 mg/kg QD oral, day 13): 20%
- EAE clinical scoring, Mean (G8, 20 mg/kg QD oral, day 14): 0.60
- incidence of EAE (G8, 20 mg/kg QD oral, day 14): 50%
- EAE clinical scoring, Mean (G8, 20 mg/kg QD oral, day 15): 1.10
- incidence of EAE (G8, 20 mg/kg QD oral, day 15): 70%
- EAE clinical scoring, Mean (G8, 20 mg/kg QD oral, day 16): 1.30
- incidence of EAE (G8, 20 mg/kg QD oral, day 16): 70%
- EAE clinical scoring, Mean (G8, 20 mg/kg QD oral, day 17): 1.40
- incidence of EAE (G8, 20 mg/kg QD oral, day 17): 80%
- EAE clinical scoring, Mean (G8, 20 mg/kg QD oral, day 18): 1.30
- incidence of EAE (G8, 20 mg/kg QD oral, day 18): 70%
- EAE clinical scoring, Mean (G8, 20 mg/kg QD oral, day 19): 1.10
- incidence of EAE (G8, 20 mg/kg QD oral, day 19): 70%
- EAE clinical scoring, Mean (G8, 20 mg/kg QD oral, day 20): 0.80
- incidence of EAE (G8, 20 mg/kg QD oral, day 20): 50%
- EAE clinical scoring, Mean (G8, 20 mg/kg QD oral, day 21): 0.70
- incidence of EAE (G8, 20 mg/kg QD oral, day 21): 50%
- EAE clinical scoring, Mean (G8, 20 mg/kg QD oral, day 22): 0.40
- incidence of EAE (G8, 20 mg/kg QD oral, day 22): 40%
- EAE clinical scoring, Mean (G8, 20 mg/kg QD oral, day 23): 0.40
- incidence of EAE (G8, 20 mg/kg QD oral, day 23): 40%
- EAE clinical scoring, Mean (G8, 20 mg/kg QD oral, day 24): 0.30
- incidence of EAE (G8, 20 mg/kg QD oral, day 24): 30%
- EAE clinical scoring, Mean (G8, 20 mg/kg QD oral, day 25): 0.30
- incidence of EAE (G8, 20 mg/kg QD oral, day 25): 30%
- EAE clinical scoring, Mean (G8, 20 mg/kg QD oral, day 26): 0.30
- incidence of EAE (G8, 20 mg/kg QD oral, day 26): 30%
- EAE clinical scoring, Mean (G8, 20 mg/kg QD oral, day 27): 0.30
- incidence of EAE (G8, 20 mg/kg QD oral, day 27): 30%
- effective dose starting at (twice daily (BID), oral, EAE clinical symptoms): 3 mg/kg
